In patent US20190231668A1, “SKIN WHITENING COMPOSITION CONTAINING MANNOSYLERYTHRITOL LIPID” (AMOREPACIFIC CORPORATION, priority 2016, published 2019):

Tested on: B16F10 (melanoma cell) cell line
Experiment: Inhibitory effect on melanin production in α-MSH-stimulated melanin pigment producing cells
Type: cell-based, mouse
Conditions: medium with α-MSH (200 nM) and 100 ppm of substance, untreated medium = 100%, α-MSH alone about 270%
Experimental: The inhibitory effect on melanin production in melanin pigment producing cells by the mannosylerythritol lipid (hereinafter referred to as MEL) was measured. As the cell line and serum, the mouse-derived B16F10 (melanoma cell) cell line purchased from ATCC and FBS (Cat No. 30-2020) were used. The DMEM (Cat No. 11995) required for cell culture and antibiotic-antifungal agent (Cat No. 15240-062) were purchased from Invitrogen company (GIBCO). The cell line was cultured under the conditions of 37° C., 10% CO2. […] Kojic acid was used as a positive control. After the fifth day, 1N NaOH was added and reacted at 60° C. for 2 hours to dissolve the melanin contained in the cells, and then measured the amount of melanin by measuring the absorbance at 405 nm. […] It was confirmed that the expression amount of melanin pigment by B16F10 cells in the medium supplemented with α-MSH and 100 ppm of kojic acid is about 110%, and thus the expression of melanin pigment was inhibited, and it was confirmed that the expression amount of melanin pigment in the medium supplemented with α-MSH and 1 ppm of MEL was about 180%, and the expression amount of melanin pigment in the medium supplemented with α-MSH and 5 ppm of MEL was about 90% and thus the expression of melanin pigment was inhibited.

O=c1cc(CO)occ1O [kojic acid]
expression amount of melanin pigment: about 110%
